Assays:
[1] = Potentiometric titration: stability constants of the complexes; assay type: physicochemical; settings: PT, 298.15 K, aqueous
Description: (§1) Potentiometric titrations were performed in a 30-mL thermostated (298.15 ± 0.10 K) cell using the Cerko Lab System microtitration unit fitted with a 5-mL Hamilton’s syringe, a pH combined electrode (Schott–BlueLine 16 pH type) and a self-made measuring cell equipped with a magnetic stirrer. The temperature was controlled using the Lauda E100 circulation thermostat. In aqueous solutions, the electrode was calibrated according to IUPAC recommendations. In binary systems (10–50 % v/v DMSO:H2O), the electrode calibration was performed by the Gran’s method using the GLEE program. For this purpose, the HClO4 solution was titrated with tetrabutylammonium hydroxide (Bu4NOH) solution both at the same mole fraction of organic solvent (10–50 (v/v%) DMSO). The syringe was calibrated by a weight method. The double distilled water of conductivity approximately 0.18 μS/cm was used throughout for the preparation of aqueous solutions. Other reagents used in the experiments were purchased from Sigma-Aldrich. They were as follows: VOSO4 (≥99.99 % trace metals basis), Co(NO3)2·6H2O (ACS reagent, ≥99 %), Ni(NO3)2·6H2O (99.999 %) and 2,2′-oxydiacetic acid (H2ODA, 98 %). All the solutions were prepared immediately before measurements. The compositions of the titrand solutions used in the experiments were as follows: (a) 2 mM Ni^2+ (Co^2+ or VO^2+), 5 mM H2ODA, 5 mM HClO4, (b) 2.5 mM H2ODA (for binary systems). The solutions (Vo = 5.0 mL) were potentiometrically titrated with the standardized 0.098 M NaOH solution or with the standardized 0.025 M Bu4NOH solution (in binary systems) in the pH range from 2.5 to 11.0. The titrant was added to the titrand in increments of 0.01 mL, with a pause of 60 s. Each titration was repeated at least three times in order to check the reproducibility of the data. The stability constants of the complexes were determined using the Hyperquad2008 program. The concentration distribution of various complex species existing in the solution as a function of pH was obtained using the HySS program.
The equilibrium constants defined by Eqs. (1) and (2):1 pM+qL+rH=MpLqHr 2 βpqr=MpLqHr/M^pL^qH^r (where M is VO^2+, Co^2+ or Ni^2+, L denotes the oxydiacetate ion, H is the proton and p, q, r are stoichiometric coefficients for the reaction) were refined by least-squares calculations using the Hyperquad2008 (version 5.2.19) computer program. For the oxovanadium(IV) system, the formation of the hydroxo complexes of VO(IV) were taken into account in the calculations of the stability constants. The following formation constants were taken from the literature and were fixed: logβ 10–1 = −5.94, logβ 20–2 = −6.95 and logβ 10–3 = −18. The equilibrium models presented in Table 2 have given the best fitting of the calculated data to the experimental ones.

[2] = Potentiometric titration: dissociation constants of oxydiacetic acid in DMSO-water; assay type: physicochemical; settings: 298.15 K
Description: as §1
To assess the influence of DMSO as a co-solvent on the stability of the complexes, its effect on the dissociation constants of H2ODA was investigated potentiometrically in the first instance. The representative pH-titration curves for oxydiacetic acid at 298.15 K in 0, 30 and 50 % (v/v) DMSO-water binary systems are shown in Fig. 2, whereas the calculated dissociation constants are collected in Table 3. In the calculations, the ionization constants of the solvents, pK s, were taken from the literature.

[3] = system: Staphylococcus epidermidis; test: Disc diffusion test; assay type: cell-based; settings: S. epidermidis, 100 μg/disc
Description: (§2) The antimicrobial activity of complex compounds was assessed against Bacillus subtilis, Escherichia coli, Enterococcus faecalis, Pseudomonas aeruginosa, Staphylococcus aureus, Staphylococcus epidermidis (all strains were from the collection of the Department of Molecular Biology, University of Gdańsk). All bacteria were cultured in the Luria-Bertani (LB) broth at 310.15 K in the air with shaking. LB agar plates were prepared by the supplementation of LB broth with the 1.5 % bacteriological agar. Stock solutions of complex compounds were freshly prepared in the LB broth at the concentration of 25 mg/mL. Aliquots of 0.05 mL of bacterial culture at the optical density at 600 nm of 0.1 (inoculum 5 × 10^6 cells per plate) were spread on LB agar plates. Sterile filter paper discs (of 6 mm diameter) were impregnated with solutions of complex compounds prepared in the deionized water at the following amounts: 0.1, 0.2, 0.5 and 1.0 mg per disc and placed on agar plates. After an overnight incubation at 310.15 K, zones of bacterial growth inhibition were measured. Neomycin at the amount of 0.1 mg/disc was used as a control.

Pseudomonas aeruginosa = test: Disc diffusion test; assay type: cell-based; settings: P. aeruginosa, 100 μg/disc
Description: as §2

Staphylococcus aureus = test: Disc diffusion test; assay type: cell-based; settings: S. aureus, 100 μg/disc
Description: as §2

Bacillus subtilis = test: Disc diffusion test; assay type: cell-based; settings: B. subtilis, 100 μg/disc
Description: as §2

Escherichia coli = test: Disc diffusion test; assay type: cell-based; settings: E. coli, 100 μg/disc
Description: as §2

Enterococcus faecalis = test: Disc diffusion test; assay type: cell-based; settings: E. faecalis, 100 μg/disc
Description: as §2

[4] = set-up: method as in earlier work; settings: fixed in the calculations; cited from earlier work
[5] = set-up: method as in doi:10.1016/j.molstruc.2011.03.036, PMID 23047227; settings: cited from earlier work

O=C(O)COCC(=O)O [H2ODA, 2,2′-oxydiacetic acid]
logβ 011 (LH) ([1]; fitted in the M = Co^2+ system): 4.16 (±0.09) | logβ 012 (LH2) ([1]; fitted in the M = Co^2+ system): 7.26 (±0.06) | logβ 011 (LH) ([1]; fitted in the M = Ni^2+ system): 4.12 (±0.01) | logβ 012 (LH2) ([1]; fitted in the M = Ni^2+ system): 6.97 (±0.01) | logβ 011 (LH) ([1]; fitted in the M = VO^2+ system): 4.20 (±0.05) | logβ 012 (LH2) ([1]; fitted in the M = VO^2+ system): 7.25 (±0.05) | pK a1 (H2ODA = HODA^− + H^+) ([2]; DMSO 0 % v/v): 2.90 (±0.05) | pK a2 (HODA^− = ODA^2− + H^+) ([2]; DMSO 0 % v/v): 4.28 (±0.08) | pK a1 (H2ODA = HODA^− + H^+) ([2]; DMSO 10 % v/v): 3.11 (±0.04) | pK a2 (HODA^− = ODA^2− + H^+) ([2]; DMSO 10 % v/v): 4.52 (±0.02) | pK a1 (H2ODA = HODA^− + H^+) ([2]; DMSO 20 % v/v): 3.28 (±0.02) | pK a2 (HODA^− = ODA^2− + H^+) ([2]; DMSO 20 % v/v): 4.69 (±0.02) | pK a1 (H2ODA = HODA^− + H^+) ([2]; DMSO 30 % v/v): 3.42 (±0.04) | pK a2 (HODA^− = ODA^2− + H^+) ([2]; DMSO 30 % v/v): 4.91 (±0.02) | pK a1 (H2ODA = HODA^− + H^+) ([2]; DMSO 40 % v/v): 3.61 (±0.03) | pK a2 (HODA^− = ODA^2− + H^+) ([2]; DMSO 40 % v/v): 5.16 (±0.02) | pK a1 (H2ODA = HODA^− + H^+) ([2]; DMSO 50 % v/v): 3.76 (±0.03) | pK a2 (HODA^− = ODA^2− + H^+) ([2]; DMSO 50 % v/v): 5.46 (±0.03)

NC[C@@H]1O[C@H](O[C@H]2[C@@H](O)[C@H](O[C@@H]3[C@@H](O)[C@H](N)C[C@H](N)[C@H]3O[C@H]3O[C@H](CN)[C@@H](O)[C@H](O)[C@H]3N)O[C@@H]2CO)[C@H](N)[C@@H](O)[C@@H]1O [Neo, Neomycin, reference compound]
Zone of growth inhibition [3]: 25 mm | Zone of growth inhibition (Pseudomonas aeruginosa): 17 mm | Zone of growth inhibition (Staphylococcus aureus): 18 mm | Zone of growth inhibition (Bacillus subtilis): 21 mm | Zone of growth inhibition (Escherichia coli): 15 mm | Zone of growth inhibition (Enterococcus faecalis): 16 mm

[O]=[V+2] [VO(IV)]
logβ 10–1 (hydroxo complex formation constant) [4]: −5.94 | logβ 10–3 (hydroxo complex formation constant) [4]: −18 | logβ 20–2 (hydroxo complex formation constant) [4]: −6.95

Cc1ccncc1.O.O.O.O=C([O-])COCC(=O)[O-].[Cu+2] [[Cu(ODA)(4-pic)(H2O)]∙2H2O]
SOD activity [5]: considerable SOD activity

O.O.O.O.O.O=C([O-])COCC(=O)[O-].[Cu+2].c1ccc(-c2ccccn2)nc1 [[Cu(ODA)(bipy)(H2O)]∙4H2O]
SOD activity [5]: considerable SOD activity

— publication PMC4352194, “Physicochemical and Biological Properties of Oxovanadium(IV), Cobalt(II) and Nickel(II) Complexes with Oxydiacetate Anions” (Biological Trace Element Research, 2014)
